Among the test systems are COLO 205; RPMI-8226; SK-MEL-2; SNB-19; LOX IMVI; NCI-H460; UO-31; A549; SF-295; SK-MEL-28; U-251; MDA-N; T47D; EKVX; Malme-3M; SW-620; HCC 2998; SNB-75; MOLT-4.
Holding throughout (experiment): NCI tumour cell line growth inhibition, 48 h

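Assay format: 96-well plates, 48-hour exposure. Here, GI50 denotes the concentration required for 50% inhibition of growth.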 Active and inactive are the calls of the source. No stated cut-off is given here; in the data, active = GI50 up to about 1.1 µM and inactive = higher. Where a SMILES comes first, the peptide text is derived from it. The star is where a group is joined. X33 = O=C(c1ccc(-c2ccc(Cl)cc2Cl)o1)*

Turning to `CCC(C)C(NC(=O)CNC(=O)C(Cc1ccccc1)NC(=O)C1CCCN1C(=O)c1ccc(-c2ccc(Cl)cc2Cl)o1)C(=O)OC` (stereo not drawn) (X33-PFGI-OMe; configuration not given here), the GI50 was 31.6 µM (inactive) in the experiment on COLO 205; 14.7 µM (inactive) with RPMI-8226; 60.5 µM (inactive) in the experiment on SK-MEL-2; 48.1 µM (inactive) with SNB-19; 33.3 µM (inactive) in the experiment on LOX IMVI; 15.7 µM (inactive) in the experiment with NCI-H460. Further, the GI50 with UO-31 was 36.8 µM (inactive); in the experiment on A549, 23.9 µM (inactive); in the experiment with SF-295, 22 µM (inactive); in the experiment on SK-MEL-28, 27.3 µM (inactive); in the experiment with U-251, 24.5 µM (inactive); in the experiment on MDA-N it was 23.4 µM (inactive). Besides, the GI50 in the experiment on T47D was 25.3 µM (inactive); with EKVX, 24.1 µM (inactive); in the experiment with Malme-3M it was 53.7 µM (inactive); in the experiment on SW-620 it was 23 µM (inactive); with HCC 2998, 21.3 µM (inactive); in the experiment on SNB-75, 23.6 µM (inactive). For the same compound, the GI50 in the experiment with MOLT-4 is 10.6 µM (inactive).
On to `O=C(Nc1c(Cl)cccc1Cl)c1c(Cl)c(Cl)c(Cl)c(Cl)c1-c1nc2ccccc2[nH]1`, for which the GI50 is 42.8 µM (inactive) in the experiment on COLO 205; 37.2 µM (inactive) in the experiment on RPMI-8226; > 100 µM (inactive) with SK-MEL-2; 46.8 µM (inactive) with LOX IMVI; > 100 µM (inactive) in the experiment on NCI-H460; 80.5 µM (inactive) in the experiment on UO-31. In addition, the GI50 was 0.601 µM (active) in the experiment with A549; 0.0468 µM (active) with SF-295; 70.6 µM (inactive) in the experiment with SK-MEL-28; 36 µM (inactive) in the experiment with MDA-N; 28 µM (inactive) in the experiment with T47D; 9.48 µM (inactive) with EKVX. Further, the GI50 in the experiment on Malme-3M was > 100 µM (inactive); in the experiment on SW-620 it was 64.6 µM (inactive); in the experiment with HCC 2998, 38.5 µM (inactive); with SNB-75, 0.313 µM (active); in the experiment on MOLT-4 it was 75.3 µM (inactive).
On to `Cc1ccc(/N=N/c2c(C)nn(C(=O)CC(=O)Nc3ccccc3)c2C)cc1C`, for which the GI50 in the experiment on COLO 205, in the experiment on RPMI-8226, in the experiment with SK-MEL-2, with LOX IMVI, in the experiment with NCI-H460 and with UO-31 was > 100 µM (inactive) each time. Moreover, the GI50 in the experiment on A549, in the experiment on SF-295, with SK-MEL-28, in the experiment with U-251, in the experiment with MDA-N and with T47D was > 100 µM (inactive) in each case. Further, the GI50 with EKVX was 26.2 µM (inactive); in the experiment with Malme-3M, > 100 µM (inactive); with SW-620, > 100 µM (inactive); with HCC 2998, > 100 µM (inactive); with SNB-75, 59.7 µM (inactive); in the experiment on MOLT-4, > 100 µM (inactive).
For the compound `O=C(Nc1cc2c(=O)oc3ccccc3c2oc1=O)c1cccnc1`, the GI50 in the experiment on COLO 205 was > 100 µM (inactive); with SK-MEL-2, 83.2 µM (inactive); in the experiment with SNB-19, 73.5 µM (inactive); in the experiment with LOX IMVI it was > 100 µM (inactive); in the experiment with NCI-H460, > 100 µM (inactive); in the experiment with UO-31, > 100 µM (inactive). The GI50 in the experiment on A549 was > 100 µM (inactive); in the experiment on SF-295, > 100 µM (inactive); in the experiment on SK-MEL-28 it was > 100 µM (inactive); with U-251 it was 35.6 µM (inactive); in the experiment on MDA-N it was > 100 µM (inactive); in the experiment with T47D it was > 100 µM (inactive). Besides, the GI50 was > 100 µM (inactive) with EKVX; > 100 µM (inactive) in the experiment on Malme-3M; > 100 µM (inactive) in the experiment on SW-620; > 100 µM (inactive) in the experiment with HCC 2998; 62.4 µM (inactive) with SNB-75; > 100 µM (inactive) with MOLT-4.
For `O=S1(=O)OCCOS(=O)(=O)C1(F)Br`, the GI50 in the experiment with COLO 205, with RPMI-8226, with SK-MEL-2, in the experiment on SNB-19, in the experiment on LOX IMVI and in the experiment with UO-31 was > 100 µM (inactive) each time. The GI50 with A549, in the experiment with SF-295, in the experiment on SK-MEL-28, in the experiment on U-251, in the experiment on MDA-N and with T47D was > 100 µM (inactive) throughout. For the same compound, the GI50 with EKVX, in the experiment on Malme-3M, in the experiment on SW-620, with HCC 2998, in the experiment on SNB-75 and in the experiment on MOLT-4 was > 100 µM (inactive) throughout.
Consider `CC(=O)N(C(C)=O)c1cc2c3c(c1)CCCN3CCC2`, for which the GI50 in the experiment with COLO 205, with RPMI-8226, in the experiment on SK-MEL-2, in the experiment with SNB-19, in the experiment with LOX IMVI and in the experiment on NCI-H460 was > 10 µM (inactive) throughout. Besides, the GI50 with A549, in the experiment on SF-295, with SK-MEL-28, in the experiment on U-251, with MDA-N and in the experiment with T47D was > 10 µM (inactive) in each case. Besides, the GI50 in the experiment on EKVX, in the experiment on Malme-3M, with SW-620, in the experiment on HCC 2998, with SNB-75 and in the experiment on MOLT-4 was > 10 µM (inactive) each time.
Take `OCC1OC(n2cnc3c(Cl)nc(Nc4ccccc4)nc32)CC1O` (stereo not drawn): the GI50 with COLO 205 was > 100 µM (inactive); in the experiment with RPMI-8226, > 100 µM (inactive); in the experiment on SK-MEL-2, 45.7 µM (inactive); in the experiment with SNB-19 it was > 100 µM (inactive); in the experiment with LOX IMVI, 19.2 µM (inactive); in the experiment on NCI-H460 it was 49.9 µM (inactive). The GI50 was 18 µM (inactive) with UO-31; 17.7 µM (inactive) with A549; > 100 µM (inactive) in the experiment with SF-295; > 100 µM (inactive) with U-251; 75.5 µM (inactive) with MDA-N; > 100 µM (inactive) with T47D. In addition, the GI50 is 2.94 µM (inactive) in the experiment with EKVX; 18.7 µM (inactive) in the experiment with Malme-3M; > 100 µM (inactive) in the experiment with SW-620; 17.8 µM (inactive) with HCC 2998; 42.6 µM (inactive) with SNB-75; 23.6 µM (inactive) with MOLT-4.
With `COC(=O)C1=C(C(=O)OC)SC(=C2SCSC3=C2SC(C(=O)OC)=C(C(=O)OC)C32SC3=C(CCCC3)S2)S1`, the GI50 with COLO 205 was > 100 µM (inactive); in the experiment with SK-MEL-2 it was > 100 µM (inactive); in the experiment on SNB-19 it was 55.7 µM (inactive); in the experiment with LOX IMVI, > 100 µM (inactive); with NCI-H460 it was > 100 µM (inactive); in the experiment with UO-31, > 100 µM (inactive). The GI50 in the experiment on A549 was > 100 µM (inactive); in the experiment on SF-295, 83.9 µM (inactive); with SK-MEL-28, > 100 µM (inactive); in the experiment with U-251, 47.6 µM (inactive); in the experiment on MDA-N, > 100 µM (inactive); in the experiment with T47D, > 100 µM (inactive). The GI50 with EKVX was > 100 µM (inactive); with Malme-3M it was > 100 µM (inactive); in the experiment with SW-620, > 100 µM (inactive); in the experiment with HCC 2998, > 100 µM (inactive); in the experiment with SNB-75, 13.9 µM (inactive); with MOLT-4, > 100 µM (inactive).
Regarding `Cc1c(-c2nc(N)c(C#N)c(N)c2C#N)c(=O)oc2ccccc12`, the GI50 in the experiment with COLO 205 is 60.7 µM (inactive); in the experiment on RPMI-8226, 23.6 µM (inactive); in the experiment with SK-MEL-2, > 100 µM (inactive); in the experiment with SNB-19, > 100 µM (inactive); with LOX IMVI, 60.3 µM (inactive); in the experiment on NCI-H460 it was > 100 µM (inactive). Also, the GI50 in the experiment on UO-31 was > 100 µM (inactive); in the experiment with A549, 45.7 µM (inactive); in the experiment with SF-295, 70 µM (inactive); in the experiment on SK-MEL-28, > 100 µM (inactive); in the experiment on U-251, 55.3 µM (inactive); in the experiment on MDA-N, > 100 µM (inactive). The GI50 with T47D is 89.5 µM (inactive); in the experiment with EKVX, 68.1 µM (inactive); with Malme-3M, > 100 µM (inactive); in the experiment with SW-620 it was 68.5 µM (inactive); in the experiment on HCC 2998 it was > 100 µM (inactive); in the experiment with SNB-75, > 100 µM (inactive).
As to `CN(C(=O)c1cccs1)C(=S)N1CCN(c2ccccc2)CC1`, the GI50 in the experiment with COLO 205 is > 100 µM (inactive); in the experiment on RPMI-8226, 52.2 µM (inactive); in the experiment on SK-MEL-2, > 100 µM (inactive); with SNB-19, > 100 µM (inactive); with LOX IMVI, > 100 µM (inactive); with NCI-H460, > 100 µM (inactive). For the same compound, the GI50 in the experiment on UO-31, in the experiment with A549, in the experiment with SF-295, in the experiment with SK-MEL-28, in the experiment with U-251 and with MDA-N was > 100 µM (inactive) each time. Also, the GI50 with T47D is > 100 µM (inactive); in the experiment with Malme-3M it was > 100 µM (inactive); with SW-620 it was > 100 µM (inactive); in the experiment on HCC 2998, > 100 µM (inactive); in the experiment on SNB-75, > 100 µM (inactive); in the experiment on MOLT-4, 51.8 µM (inactive).
Take `CCCCCCCCCC(=O)OCC1(CO)C/C(=C/CC(C(C)C)C(C)C)C(=O)O1` (stereo not drawn): the GI50 in the experiment on COLO 205 is 9.18 µM (inactive); in the experiment with SK-MEL-2, > 100 µM (inactive); with SNB-19, 32.6 µM (inactive); in the experiment with LOX IMVI, 21.6 µM (inactive); with NCI-H460 it was 23.5 µM (inactive); in the experiment on UO-31 it was 28.7 µM (inactive). The GI50 is 26.6 µM (inactive) in the experiment with A549; 42.4 µM (inactive) in the experiment with SF-295; 71.3 µM (inactive) with SK-MEL-28; 26.7 µM (inactive) in the experiment on U-251; 87.1 µM (inactive) in the experiment on MDA-N; 58.3 µM (inactive) in the experiment with T47D. Moreover, the GI50 is 70.1 µM (inactive) with EKVX; 23 µM (inactive) with Malme-3M; 26.9 µM (inactive) in the experiment with SW-620; 39.3 µM (inactive) with HCC 2998; 78 µM (inactive) in the experiment with SNB-75; 14.5 µM (inactive) in the experiment with MOLT-4.
